Data as given in patent US20080234262A1 (Wyeth, priority 2007, published 2008).
Where two headings read alike, the source gives them in different places.

Legend:
[1] = test system: prostate line LNCap; experiment: In vitro cell culture growth assay (MTS), LNCap; assay type: cell-based, human; settings: LNCap cells, three days after drug treatment;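 also: viable cell density read by absorbance at 490 nm, growth expressed as percent of vehicle-treated cells on the same plate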
[2] = test system: breast line MDA468; experiment: In vitro cell culture growth assay (MTS), MDA468; assay type: cell-based, human; settings: MDA468 cells, three days after drug treatment
Outline: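 Steps: plate cells; add inhibitors the next day; incubate 3 days; add MTS dye, which viable cells convert metabolically; measure absorbance at 490 nm; calculate percent of control growth relative to vehicle-treated cells in the same plate.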

[3] = target: PI3K (Homo sapiens, UniProt P42336); experiment: Fluorescence polarization assay for PI3K; assay type: biochemical;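 also: PI3K kinase reaction on PIP2 with ATP, 30-60 min, product sensed by GST-GRP with red probe in fluorescence polarization (mP), controls without enzyme and at zero time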
PI3K, sequence (P42336 whole entry): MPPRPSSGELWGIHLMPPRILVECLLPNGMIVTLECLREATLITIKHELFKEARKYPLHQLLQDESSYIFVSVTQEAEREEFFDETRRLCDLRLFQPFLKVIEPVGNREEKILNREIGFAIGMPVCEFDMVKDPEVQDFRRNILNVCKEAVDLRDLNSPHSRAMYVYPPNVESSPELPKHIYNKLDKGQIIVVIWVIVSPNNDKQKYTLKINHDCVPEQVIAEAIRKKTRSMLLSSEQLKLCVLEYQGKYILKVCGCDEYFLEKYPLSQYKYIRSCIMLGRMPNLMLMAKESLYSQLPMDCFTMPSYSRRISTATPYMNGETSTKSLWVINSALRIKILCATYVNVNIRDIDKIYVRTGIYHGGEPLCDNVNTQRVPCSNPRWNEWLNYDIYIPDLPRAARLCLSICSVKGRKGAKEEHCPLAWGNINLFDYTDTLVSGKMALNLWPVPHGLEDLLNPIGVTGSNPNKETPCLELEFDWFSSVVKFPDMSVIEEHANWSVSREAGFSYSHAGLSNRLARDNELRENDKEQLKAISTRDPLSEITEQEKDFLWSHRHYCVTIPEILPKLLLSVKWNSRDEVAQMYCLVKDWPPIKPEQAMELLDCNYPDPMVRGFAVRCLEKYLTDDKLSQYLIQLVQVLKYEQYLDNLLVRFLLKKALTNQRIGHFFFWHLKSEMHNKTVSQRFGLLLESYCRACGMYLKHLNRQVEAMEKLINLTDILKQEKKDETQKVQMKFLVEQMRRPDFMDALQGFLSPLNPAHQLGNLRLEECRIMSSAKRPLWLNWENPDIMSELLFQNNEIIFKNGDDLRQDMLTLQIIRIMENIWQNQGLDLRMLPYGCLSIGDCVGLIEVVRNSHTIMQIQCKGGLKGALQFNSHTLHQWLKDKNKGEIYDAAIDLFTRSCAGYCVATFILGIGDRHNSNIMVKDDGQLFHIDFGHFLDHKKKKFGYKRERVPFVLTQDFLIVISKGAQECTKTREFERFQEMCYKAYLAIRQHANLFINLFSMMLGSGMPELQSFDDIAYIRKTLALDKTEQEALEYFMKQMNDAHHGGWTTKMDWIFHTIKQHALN
PI3K, sequence (P27986 whole entry partner): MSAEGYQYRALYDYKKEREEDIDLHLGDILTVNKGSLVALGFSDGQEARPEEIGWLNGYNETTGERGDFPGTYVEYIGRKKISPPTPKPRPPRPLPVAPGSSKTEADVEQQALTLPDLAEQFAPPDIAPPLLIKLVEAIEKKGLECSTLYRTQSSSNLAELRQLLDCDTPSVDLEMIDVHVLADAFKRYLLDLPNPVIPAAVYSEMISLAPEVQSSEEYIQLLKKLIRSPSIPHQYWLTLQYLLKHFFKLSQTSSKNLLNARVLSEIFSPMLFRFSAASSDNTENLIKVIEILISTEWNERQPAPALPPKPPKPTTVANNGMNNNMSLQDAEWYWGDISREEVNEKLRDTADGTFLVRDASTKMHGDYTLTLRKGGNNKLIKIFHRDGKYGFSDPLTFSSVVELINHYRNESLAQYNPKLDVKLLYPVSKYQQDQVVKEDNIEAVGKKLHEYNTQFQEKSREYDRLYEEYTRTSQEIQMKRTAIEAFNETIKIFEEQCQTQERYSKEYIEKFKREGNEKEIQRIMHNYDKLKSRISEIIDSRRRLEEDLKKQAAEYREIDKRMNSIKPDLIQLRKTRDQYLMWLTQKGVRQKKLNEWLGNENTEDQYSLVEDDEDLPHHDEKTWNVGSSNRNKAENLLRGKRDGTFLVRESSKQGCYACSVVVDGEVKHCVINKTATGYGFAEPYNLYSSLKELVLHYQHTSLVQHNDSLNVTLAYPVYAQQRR

| SMILES | IC50 ([1]; Homo sapiens, LNCaP, 72 h) | IC50 ([2]; Homo sapiens, 72 h) | IC50 ([3]; PI3Kα; read-out: PI3Kα IC50) | IC50 [1] | IC50 [2] | IC50 ([3]; read-out: PI3Kα IC50; PI3Kα) |
| --- | --- | --- | --- | --- | --- | --- |
| O=C(Nc1cc(F)c(-c2nc(N3CCOCC3)c3cnn(C4CCN(C(=O)c5cccnc5)CC4)c3n2)cc1F)NC1CC1 [Compound 468, 1-cyclopropyl-3-(2,5-difluoro-4-{4-morpholin-4-yl-1-[1-(pyridin-3-ylcarbonyl)piperidin-4-yl]-1H-pyrazolo[3,4-d]pyrimidin-6-yl}phenyl)urea] | 1 µM | 2.2 µM | 3.56 µM |  |  |  |
| FC(F)(F)CN1CCC(n2ncc3c(N4CCOCC4)nc(-c4ccc5[nH]ccc5c4)nc32)CC1 [Compound 471, 6-(1H-indol-5-yl)-4-morpholin-4-yl-1-[1-(2,2,2-trifluoroethyl)piperidin-4-yl]-1H-pyrazolo[3,4-d]pyrimidine] | 4 µM | 7.8 µM | 2.88 µM |  |  |  |
| CNC(=O)Nc1ccc(-c2nc(N3CCOCC3)c3cnn(C4CCN(C(=O)c5cccnc5)CC4)c3n2)cn1 [Compound 480, 1-methyl-3-(5-{4-morpholin-4-yl-1-[1-(pyridin-3-ylcarbonyl)piperidin-4-yl]-1H-pyrazolo[3,4-d]pyrimidin-6-yl}pyridin-2-yl)urea] | 0.8 µM | 1.2 µM | 0.042 µM |  |  |  |
| CNC(=O)Nc1cccc(-c2nc(N3CCOCC3)c3cnn(C4CCN(Cc5ccccc5)CC4)c3n2)c1 [Compound 482, N-{3-[1-(1-benzylpiperidin-4-yl)-4-morpholin-4-yl-1H-pyrazolo[3,4-d]pyrimidin-6-yl]phenyl}-N′-methylurea] | 5.8 µM | 6.8 µM | 1.92 µM |  |  |  |
| NC(=O)Nc1cccc(-c2nc(N3CCOCC3)c3cnn(C4CCN(Cc5ccccc5)CC4)c3n2)c1 [Compound 483, N-{3-[1-(1-benzylpiperidin-4-yl)-4-morpholin-4-yl-1H-pyrazolo[3,4-d]pyrimidin-6-yl]phenyl}urea] | 6.8 µM | 12 µM | 2.17 µM |  |  |  |
| c1ccc(CN2CCC(n3ncc4c(N5CCOCC5)nc(-c5cnc6ccccc6c5)nc43)CC2)cc1 [Compound 484, 3-[1-(1-benzylpiperidin-4-yl)-4-morpholin-4-yl-1H-pyrazolo[3,4-d]pyrimidin-6-yl]quinoline] | > 60 µM | 22 µM | 6 µM |  |  |  |
| CN(C)CC=CC(=O)N1CCC(n2ncc3c(N4CCOCC4)nc(-c4ccc5[nH]ccc5c4)nc32)CC1 [Compound 487, 4-{4-[6-(1H-indol-5-yl)-4-morpholin-4-yl-1H-pyrazolo[3,4-d]pyrimidin-1-yl]piperidin-1-yl}-N,N-dimethyl-4-oxobut-2-en-1-amine] | 1 µM | 2 µM | 0.48 µM |  |  |  |
| CC(C)N1CCC(n2ncc3c(N4CCOCC4)nc(-c4ccc5[nH]ccc5c4)nc32)CC1 [Compound 488, 6-(1H-indol-5-yl)-1-(1-isopropylpiperidin-4-yl)-4-morpholin-4-yl-1H-pyrazolo[3,4-d]pyrimidine] | 2.5 µM | 2.9 µM | 3.75 µM |  |  |  |
| c1ccc(CCN2CCC(n3ncc4c(N5CCOCC5)nc(-c5ccc6[nH]ccc6c5)nc43)CC2)cc1 [Compound 489, 6-(1H-indol-5-yl)-4-morpholin-4-yl-1-[1-(2-phenylethyl)piperidin-4-yl]-1H-pyrazolo[3,4-d]pyrimidine] | 0.78 µM | 3.1 µM | 3.09 µM |  |  |  |
| CC(c1ccccc1)N1CCC(n2ncc3c(N4CCOCC4)nc(-c4ccc5[nH]ccc5c4)nc32)CC1 (stereo not drawn) [Compound 490, 6-(1H-indol-5-yl)-4-morpholin-4-yl-1-[1-(1-phenylethyl)piperidin-4-yl]-1H-pyrazolo[3,4-d]pyrimidine] | 3.8 µM | 3.5 µM | 2.67 µM |  |  |  |
| COCCN1CCC(n2ncc3c(N4CCOCC4)nc(-c4ccc5[nH]ccc5c4)nc32)CC1 [Compound 491, 6-(1H-indol-5-yl)-1-[1-(2-methoxyethyl)piperidin-4-yl]-4-morpholin-4-yl-1H-pyrazolo[3,4-d]pyrimidine] | 2.4 µM | 4.2 µM | 5 µM |  |  |  |
| O=C(Cc1ccccc1)N1CCC(n2ncc3c(N4CCOCC4)nc(-c4ccc5[nH]ccc5c4)nc32)CC1 [Compound 492, 6-(1H-indol-5-yl)-4-morpholin-4-yl-1-[1-(phenylacetyl)piperidin-4-yl]-1H-pyrazolo[3,4-d]pyrimidine] | 0.7 µM | 3 µM | 0.692 µM |  |  |  |
| O=C(Oc1ccccc1)N1CCC(n2ncc3c(N4CCOCC4)nc(-c4ccc5[nH]ccc5c4)nc32)CC1 [Compound 493, phenyl 4-[6-(1H-indol-5-yl)-4-morpholin-4-yl-1H-pyrazolo[3,4-d]pyrimidin-1-yl]piperidine-1-carboxylate] |  |  |  | 1.3 µM | 4.3 µM | 0.535 µM |
| COC(=O)N1CCC(n2ncc3c(N4CCOCC4)nc(-c4ccc5[nH]ccc5c4)nc32)CC1 [Compound 494, methyl 4-[6-(1H-indol-5-yl)-4-morpholin-4-yl-1H-pyrazolo[3,4-d]pyrimidin-1-yl]piperidine-1-carboxylate] | 0.75 µM | 2.05 µM | 3.3 µM |  |  |  |
| NC(=O)CN1CCC(n2ncc3c(N4CCOCC4)nc(-c4ccc5[nH]ccc5c4)nc32)CC1 [Compound 495, 2-{4-[6-(1H-indol-5-yl)-4-morpholin-4-yl-1H-pyrazolo[3,4-d]pyrimidin-1-yl]piperidin-1-yl}acetamide] | 0.8 µM | 2.8 µM | 2.66 µM |  |  |  |
| OCCN1CCC(n2ncc3c(N4CCOCC4)nc(-c4ccc5[nH]ccc5c4)nc32)CC1 [Compound 496, 2-{4-[6-(1H-indol-5-yl)-4-morpholin-4-yl-1H-pyrazolo[3,4-d]pyrimidin-1-yl]piperidin-1-yl}ethanol] | 1.8 µM | 3 µM | 3.99 µM |  |  |  |
| OCCCN1CCC(n2ncc3c(N4CCOCC4)nc(-c4ccc5[nH]ccc5c4)nc32)CC1 [Compound 497, 3-{4-[6-(1H-indol-5-yl)-4-morpholin-4-yl-1H-pyrazolo[3,4-d]pyrimidin-1-yl]piperidin-1-yl}propan-1-ol] | 2.5 µM | 3 µM | 7.29 µM |  |  |  |
| CCCNC(=O)Nc1ccc(-c2nc(N3CCOCC3)c3cnn(C4CCN(Cc5ccccc5)CC4)c3n2)cc1 [Compound 500, 1-{4-[1-(1-benzylpiperidin-4-yl)-4-morpholin-4-yl-1H-pyrazolo[3,4-d]pyrimidin-6-yl]phenyl}-3-propylurea] | 0.22 µM | 1.5 µM | 0.341 µM |  |  |  |
| O=C(NCCc1ccccc1)Nc1ccc(-c2nc(N3CCOCC3)c3cnn(C4CCN(Cc5ccccc5)CC4)c3n2)cc1 [Compound 505, 1-{4-[1-(1-benzylpiperidin-4-yl)-4-morpholin-4-yl-1H-pyrazolo[3,4-d]pyrimidin-6-yl]phenyl}-3-(2-phenylethyl)urea] | 1 µM | 20 µM | 2.14 µM |  |  |  |
| O=C(NCCCc1ccccc1)Nc1ccc(-c2nc(N3CCOCC3)c3cnn(C4CCN(Cc5ccccc5)CC4)c3n2)cc1 [Compound 506, 1-{4-[1-(1-benzylpiperidin-4-yl)-4-morpholin-4-yl-1H-pyrazolo[3,4-d]pyrimidin-6-yl]phenyl}-3-(3-phenylpropyl)urea] | 4.5 µM | > 60 µM | 7.03 µM |  |  |  |
| O=C(NCC1CC1)Nc1ccc(-c2nc(N3CCOCC3)c3cnn(C4CCN(Cc5ccccc5)CC4)c3n2)cc1 [Compound 508, 1-{4-[1-(1-benzylpiperidin-4-yl)-4-morpholin-4-yl-1H-pyrazolo[3,4-d]pyrimidin-6-yl]phenyl}-3-(cyclopropylmethyl)urea] | 0.7 µM | 3 µM | 0.384 µM |  |  |  |
